Test results from US20210038732A1, “ANTICANCER MICRORNA AND LIPID FORMULATIONS THEREOF” (INTERNA TECHNOLOGIES B.V., priority 2018, published 2021).

Assays:
[1] = system: orthotopic human Hep3b hepatocellular carcinoma tumors; test: Tumor growth inhibition, orthotopic Hep3b model, AFP levels and tumor weights (Example 4.3); assay type: in vivo, mice; settings: formulated in diamino lipid nanoparticles, iv
Procedure: Seven to 8 weeks old female SCID/Beige mice (Shanghai Lingchang Bio-Technology Co. Ltd, Shanghai, China) were orthotopically implanted with a single 2×2×2 mm piece of a subq grown Hep3b tumor into the left liver lobe. Mice were randomized based on day 21 AFP levels. At the time of randomization, the AFP levels (ng/ml plasma) ranged between 1019 and 19779 ng/ml (median 5203, IQR=2690-9498). Treatments started on day 22 and continued for three weeks (see Table 8 for dosing scheme). AFP was measured once a week (4 times in total), and BW was measured twice a week. At the end of the study tumor weights were also determined. QDx3, QDx5=one injection per day for three or five consecutive days; BIW=twice a week; BID=twice daily; po=per oral.

[2] = system: twelve syngeneic tumor models; test: Primary tumor growth in a panel of twelve syngeneic tumor models (significance); assay type: in vivo, mice
Description: In this study, the effect of miRNA-193a formulated in diamino lipid nanoparticles was investigated on the primary tumor growth in a panel of twelve syngeneic tumor models. Six to eight weeks mice (Shanghai Lingchang Bio-Technology Co. Ltd, Shanghai, China) were subcutaneously injected with an appropriate number of syngeneic cancer cells, depending on the cancer model (see Table 18). At the time of randomization, tumor volume (TV) was approximately 80-120 mm^3. Body weights and TVs (caliper measurements) were determined 2-3 times/week. After randomization (indicated as day 0) mice received PBS or miR-193a (formulated in diamino lipid nanoparticles) treatments as shown in Table 19. Each tumor model had two groups as depicted in Table 19. Mice were scheduled to be euthanized after two weeks of follow up after a maximum of four weeks of treatment.

[3] = system: A549, H460, HEP3B, HUH7, A2058, BT549; test: RNA-sequencing differential expression in six cancer cell lines; assay type: cell-based, human; settings: for Down-regulated genes: adjusted P<0.1, 10 nM, 24h
Procedure: Six human cancer cell lines were cultured in appropriate media (Table 3) and seeded into 6-well plates 24h before transfection with 10 nM miRNA-193a-3p or mock using Lipofectamine RNAiMAX (Thermofisher). Reagents were aspirated 16h after transfection and cells were passaged into new 6-well plates. Media was aspirated 24h after transfection and plates were stored at −80° C. Three independent replicates were performed for each cell line.
RNA was isolated using the miRNeasy Mini kit (Qiagen). The procedure included on-column DNase treatment. RNA concentration was measured on NanodropOne. 150 ng of each independent replicate was pooled and 450 ng samples (Table) were submitted to GenomeScan BV (Leiden, The Netherlands).
PolyA enrichment was performed followed by next generation RNA-Sequencing using Illumina NovaSeq 6000 at GenomeScan BV. The data processing workflow included raw data quality control, adapter trimming, and alignment of short reads. The reference GRCh37.75.dna.primary_assembly was used for alignment of the reads for each sample. Based on the mapped locations in the alignment file the frequency of how often a read was mapped on a transcript was determined (feature counting). The counts were saved to count files, which serve as input for downstream RNA-Seq differential expression analysis.
Differential expression analysis was performed on the short read data set by GenomeScan BV. The read counts were loaded into the DESeq package v1.30.0, a statistical package within the R platform v3.4.4. DESeq was specifically developed to find differentially expressed genes between two conditions (mock versus miRNA-193a-3p) for RNA-Seq data with small sample size and over-dispersion. […]

[4] = system: MPP2, STMN1, YWHAZ, and CCNA2; test: Expression of G2/M related target genes by RT-PCR; assay type: cell-based, human; settings: 10 nM; Hep3B, SNU449 and H1975; 24h, 48h and 72h; vs mock
Procedure: To prepare cDNA, first 100 ng total RNA was mixed with Random Hexamers (Qiagen; final concentration 2 μM) in a final volume of 12.5 μl in NFW, denatured for 5 min at 70° C. and immediately cooled on ice. Next, 7.5 μl of a cDNA synthesis mix was added, consisting of 4 μl 5×RT Buffer (Promega), 0.4 μl 25 mM dNTPs (Promega), 1 μl 200 U/μL MMLV RT-enzyme (Promega), 0.5 μL 40 U/μL RNAse Inhibitor (Promega) and 1.6 μL NFW. The following cDNA synthesis protocol was used:
Similar phenotype has been observed in Panc1 (pancreatic cancer cell) as well as H1975 (lung cancer cell) (data not shown). […] MPP2 and STMN1 associate with cytoskeleton and therefore regulate cell division and proliferation at the G2/M phase, while YWHAZ and CCNA2 play roles in regulation of G2/M phase checkpoint by binding and sequestering the cyclin-dependent kinases.

[5] = system: 4T1; test: Cell motility, Boyden chamber assay; assay type: cell-based, mouse; settings: 10 nM
Procedure: To check the migratory ability of cells, a Boyden Chamber assay was performed, which is based on a chamber of two medium-filled compartments separated by a […] pore size membrane (BD falcon). In this assay, depending on cell type 60,000-120,000 cells were seeded in the upper compartment of the membrane in serum free medium and were allowed to migrate through the pores of the membrane into the lower compartment, in which serum is present in the media. The serum acts as a chemoattractant. After an appropriate incubation time, the membrane between two compartments was fixed, stained and 6 different images from each membrane were taken. The number of migratory cells were counted using Image J analysis.
Different biological effects of miRNA-193a-3p have been tested in various cancer cell lines (see Table 13). For this, various cells were treated with miRNA-193a at different concentrations (1, 3, 10 nM). For all experiments controls (untreated, mock and scrambled) were measured. All assays were performed at 24h, 48h and 72h time points. […] All the results have been quantified and normalized to the mock control.
miRNA-193a treatment in various cancer cell lines decreased cell viability over time as measured by either an MTS assay or by cell count. It enhanced apoptosis induction over time as measured by a caspase 3/7 apoptosis assay. […]

For “miRNA-193a: duplex of the miRNA-193a-3p of SEQ ID NO: 218 (mimic, sense) with antisense strand SEQ ID NO: 219; naked in vitro, formulated in vivo (sense UGGGACUUUGUAGGCCAGUUTT; antisense AACUGGCCUACAAAGUCCCAGU; chemistry not given here; listed as Homo sapiens)”, the “TGI effects (AFP levels, tumor weights)” value [1] was “significant TGI effects”, the “Tumor growth inhibition (TGI), significance” value ([2]; CT26, Renca, and Hepa1-6 models) was “did not induce significant TGI” and the “Tumor growth inhibition (TGI), significance” value ([2]; H22, Pan02, B16-BL6, RM-1, B16F10, MC38, A20, and EMT-6 models) was “significantly induced tumor growth inhibition”. For the same substance, the “% Predicted” value ([3]; # cell lines =6) was 83%, the Down-regulated genes ([3]; # cell lines =6) was 35 and the “% Predicted” value ([3]; # cell lines ≥1) was 58%. For the same substance, the Down-regulated genes ([3]; # cell lines ≥1) was 352, the “% Predicted” value ([3]; # cell lines ≥2) was 65% and the Down-regulated genes ([3]; # cell lines ≥2) was 282. The “% Predicted” value ([3]; # cell lines ≥3) was 67%, the Down-regulated genes ([3]; # cell lines ≥3) was 242 and the “% Predicted” value ([3]; # cell lines ≥4) was 66%. The Down-regulated genes ([3]; # cell lines ≥4) was 218, the “% Predicted” value ([3]; # cell lines ≥5) was 63% and the Down-regulated genes ([3]; # cell lines ≥5) was 181. The “Expression level of G2/M related target genes” value [4] was “down-regulated” and the “Motility (18 to 24 h)” value [5] was “↓”.
